According to article PMC13210772, “Dual FLT3/MAPK14 Proteolysis-Targeting Chimera (PROTAC) Induces Potent Acute Myeloid Leukemia Cell Death” (Pharmaceuticals, 2026):

How the values were obtained:
Plasma stability = assay type: in vitro ADME; conditions: for remaining at 0 h, 10 µM / remaining at 10 min, 10 µM / remaining at 0.5 h, 10 µM / remaining at 1 h, 10 µM / remaining at 2 h, 10 µM / remaining at 6 h, 10 µM: pooled human plasma, 37 °C; for remaining at 0 h, 10 µM: 0 min, read-out: 0 min—Compound Remaining %; for remaining at 10 min, 10 µM: read-out: 10 min—Compound Remaining %; for remaining at 0.5 h, 10 µM: 30 min, read-out: 30 min—Compound Remaining %; for remaining at 1 h, 10 µM: 60 min, read-out: 60 min—Compound Remaining %; for remaining at 2 h, 10 µM: 120 min, read-out: 120 min—Compound Remaining %; for remaining at 6 h, 10 µM: 360 min, read-out: 360 min—Compound Remaining %; for plasma stability: human plasma, 6 h
Method: Another aspect we tested for selected PROTACs, and the reference inhibitor is the stability in human plasma. PROTACs MA190 and MA191 and their parent inhibitor MA68 (10 μM, final DMSO concentration 1%) were incubated with 100 μL pooled human plasma at 37 °C. The remaining amount of the incubated compound was tested for 6 h using a HPLC method. […] The further detailed biological characterization of MA191 and the successful in vivo testing can be found in a study submitted in parallel.
To determine plasma stability, 10 μM of the given compound was incubated with 100 μL human pooled plasma for 5, 10, 30, 60, 120 and 360 min at 37 °C. The reactions were stopped by adding 300 μL of acetonitrile with subsequent plasma proteins sedimentation. The samples were subjected to ultra-centrifugation (5 min, 10,000 RPM/g) using modified PES 30K low protein binding centrifugal filter. The filtrate was then analyzed using HPLC to determine the available concentration of the compounds and also to determine and quantify potential degradation products. As HPLC system a LiChrosorb® RP-18 (5 μm) 100–4.6 column from the manufacturer Merck, two LC-10AD pumps, a SPD-M10A VP PDA detector, and a SIL HT auto-sampler were used (all from the manufacturer Shimadzu, Kyoto, Japan). As mobile phase a gradient with […] composed of methanol/water/trifluoroacetic acid at a flow rate of 1 mL/min. UV absorbance was measured at 254 nm was used.

HEK293 cells = experiment: Cytotoxicity in HEK293 cells (Alamar Blue); conditions: 50 µM
[1] = Non-enzymatic stability under cellular assay conditions (HPLC); assay type: physicochemical; conditions: compound remaining, assay medium DMEM, 37 °C
Method: An important aspect in the development of PROTACs is testing chemical stability. On the one hand, we tested all PROTACs produced for their stability under cellular assay conditions. For this purpose, 10 µM solutions of the PROTACs and reference inhibitor were incubated for 72 h at 37 °C with the assay medium DMEM. The remaining amount of the compounds was determined by HPLC after 6, 12, 24, 48 and 72 h. The results of the stability studies are shown in Table S2 (Supplementary Information).
The developed compounds were diluted in the assay media consisting of a mixture of DMEM (50%), DMSO (10%) and acetonitrile (40%) at pH 7.4 and incubated at 37 °C for 72 h. The quantity of the compounds was measured after 6, 12, 24, 48, and 72 h by HPLC using an XTerra RP18 column ([…], 3.9 mm × 100 mm) from the manufacturer Waters (Milford, MA, USA) and two LC-10AD pumps, an SPD-M10AVP PDA detector, and an SIL-HT autosampler, all from the manufacturer Shimadzu (Kyoto, Japan).

FRK = molecular target: T1, FRK (Homo sapiens, UniProt P42685); experiment: NanoBRET CELLinib128; assay type: binding; conditions: 100% no effect, 0% complete tracer displacement, read-out: Tracer bound
T1 construct: Full-length kinase ORF (Promega, Madison, WI, USA) cloned in frame with a NanoLuc-vector was transfected into HEK293T cells; host or cells: HEK293T

TEC = TEC (Homo sapiens, UniProt P42680); experiment: NanoBRET CELLinib128; conditions: read-out: Tracer bound
PTK6 = molecular target: T2, PTK6 (Homo sapiens, UniProt Q13882); experiment: NanoBRET CELLinib128; assay type: binding; conditions: 100% no effect, 0% complete tracer displacement, read-out: Tracer bound
T2 construct: Full-length kinase ORF (Promega, Madison, WI, USA) cloned in frame with a NanoLuc-vector was transfected into HEK293T cells; host or cells: HEK293T

YES1 = YES1 (Homo sapiens, UniProt P07947); experiment: NanoBRET CELLinib128; conditions: read-out: Tracer bound
GSK3A = GSK3A (Homo sapiens, UniProt P49840); experiment: NanoBRET CELLinib128; conditions: read-out: Tracer bound
EPHA1 = EPHA1 (Homo sapiens, UniProt P21709); experiment: NanoBRET CELLinib128; conditions: read-out: Tracer bound
ABL1 = molecular target: T3, ABL1 (Homo sapiens, UniProt P00519); experiment: NanoBRET CELLinib128; assay type: binding; conditions: 100% no effect, 0% complete tracer displacement, read-out: Tracer bound
T3 construct: Full-length kinase ORF (Promega, Madison, WI, USA) cloned in frame with a NanoLuc-vector was transfected into HEK293T cells; host or cells: HEK293T

EPHA5 = molecular target: T4, EPHA5 (Homo sapiens, UniProt P54756); experiment: NanoBRET CELLinib128; assay type: binding; conditions: 1 µM; 100% no effect, 0% complete tracer displacement
T4 construct: Full-length kinase ORF (Promega, Madison, WI, USA) cloned in frame with a NanoLuc-vector was transfected into HEK293T cells; host or cells: HEK293T

FGR = FGR (Homo sapiens, UniProt P09769); experiment: NanoBRET CELLinib128; conditions: read-out: Tracer bound
STK32B = STK32B (Homo sapiens, UniProt Q9NY57); experiment: NanoBRET CELLinib128; conditions: read-out: Tracer bound
[2] = system: 128 representative protein kinases; experiment: NanoBRET CELLinib128 kinase selectivity panel, summary; conditions: 1 μM
GSK3B = GSK3B (Homo sapiens, UniProt P49841); experiment: NanoBRET CELLinib128; conditions: read-out: Tracer bound
TESK1 = molecular target: T5, TESK1 (Homo sapiens, UniProt Q15569); experiment: NanoBRET CELLinib128; assay type: binding; conditions: 100% no effect, 0% complete tracer displacement, read-out: Tracer bound
T5 construct: Full-length kinase ORF (Promega, Madison, WI, USA) cloned in frame with a NanoLuc-vector; host or cells: HEK293T

EPHA4 = EPHA4 (Homo sapiens, UniProt P54764); experiment: NanoBRET CELLinib128; conditions: read-out: Tracer bound
RIPK1 = RIPK1 (Homo sapiens, UniProt Q13546); experiment: NanoBRET CELLinib128; conditions: read-out: Tracer bound
CSNK1D = CSNK1D (Homo sapiens, UniProt P48730); experiment: NanoBRET CELLinib128; conditions: read-out: Tracer bound
EPHB6 = EPHB6 (Homo sapiens, UniProt O15197); experiment: NanoBRET CELLinib128; conditions: read-out: Tracer bound
STK17B = molecular target: T6, STK17B (Homo sapiens, UniProt O94768); experiment: NanoBRET CELLinib128; assay type: binding; conditions: 100% no effect, 0% complete tracer displacement, read-out: Tracer bound
T6 construct: Full-length kinase ORF (Promega, Madison, WI, USA) cloned in frame with a NanoLuc-vector was transfected into HEK293T cells; host or cells: HEK293T

CAMK1G = molecular target: T7, CAMK1G (Homo sapiens, UniProt Q96NX5); experiment: NanoBRET CELLinib128; assay type: binding; conditions: 100% no effect, 0% complete tracer displacement, read-out: Tracer bound
T7 construct: Full-length kinase ORF (Promega, Madison, WI, USA) cloned in frame with a NanoLuc-vector was transfected into HEK293T cells; host or cells: HEK293T
T7 sequence (Q96NX5 whole entry): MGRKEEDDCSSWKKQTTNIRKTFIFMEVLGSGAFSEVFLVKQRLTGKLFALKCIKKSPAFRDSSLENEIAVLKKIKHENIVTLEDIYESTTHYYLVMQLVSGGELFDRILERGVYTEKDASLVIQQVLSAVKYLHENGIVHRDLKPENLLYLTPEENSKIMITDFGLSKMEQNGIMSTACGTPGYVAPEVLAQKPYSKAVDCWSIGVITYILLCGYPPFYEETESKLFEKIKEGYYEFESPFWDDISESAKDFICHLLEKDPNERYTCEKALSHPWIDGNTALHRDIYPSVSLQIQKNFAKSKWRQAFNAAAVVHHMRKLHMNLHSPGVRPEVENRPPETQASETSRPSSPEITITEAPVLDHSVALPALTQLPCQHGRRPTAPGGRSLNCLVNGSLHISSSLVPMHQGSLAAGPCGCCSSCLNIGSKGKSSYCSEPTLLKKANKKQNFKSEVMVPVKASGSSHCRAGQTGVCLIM

Chain of GSK3B (P49841 whole entry): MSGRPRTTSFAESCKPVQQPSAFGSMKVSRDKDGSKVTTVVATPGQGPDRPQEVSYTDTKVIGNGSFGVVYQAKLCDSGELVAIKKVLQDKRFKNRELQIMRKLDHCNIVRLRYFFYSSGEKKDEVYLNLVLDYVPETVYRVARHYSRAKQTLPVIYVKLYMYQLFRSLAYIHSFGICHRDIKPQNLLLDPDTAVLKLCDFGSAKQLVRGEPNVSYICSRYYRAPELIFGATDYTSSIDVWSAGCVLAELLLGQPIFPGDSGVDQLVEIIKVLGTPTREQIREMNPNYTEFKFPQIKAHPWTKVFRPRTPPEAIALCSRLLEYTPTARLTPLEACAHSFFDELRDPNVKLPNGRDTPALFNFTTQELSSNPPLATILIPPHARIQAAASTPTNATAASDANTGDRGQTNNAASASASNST
Chain of EPHA1 (P21709 26-976): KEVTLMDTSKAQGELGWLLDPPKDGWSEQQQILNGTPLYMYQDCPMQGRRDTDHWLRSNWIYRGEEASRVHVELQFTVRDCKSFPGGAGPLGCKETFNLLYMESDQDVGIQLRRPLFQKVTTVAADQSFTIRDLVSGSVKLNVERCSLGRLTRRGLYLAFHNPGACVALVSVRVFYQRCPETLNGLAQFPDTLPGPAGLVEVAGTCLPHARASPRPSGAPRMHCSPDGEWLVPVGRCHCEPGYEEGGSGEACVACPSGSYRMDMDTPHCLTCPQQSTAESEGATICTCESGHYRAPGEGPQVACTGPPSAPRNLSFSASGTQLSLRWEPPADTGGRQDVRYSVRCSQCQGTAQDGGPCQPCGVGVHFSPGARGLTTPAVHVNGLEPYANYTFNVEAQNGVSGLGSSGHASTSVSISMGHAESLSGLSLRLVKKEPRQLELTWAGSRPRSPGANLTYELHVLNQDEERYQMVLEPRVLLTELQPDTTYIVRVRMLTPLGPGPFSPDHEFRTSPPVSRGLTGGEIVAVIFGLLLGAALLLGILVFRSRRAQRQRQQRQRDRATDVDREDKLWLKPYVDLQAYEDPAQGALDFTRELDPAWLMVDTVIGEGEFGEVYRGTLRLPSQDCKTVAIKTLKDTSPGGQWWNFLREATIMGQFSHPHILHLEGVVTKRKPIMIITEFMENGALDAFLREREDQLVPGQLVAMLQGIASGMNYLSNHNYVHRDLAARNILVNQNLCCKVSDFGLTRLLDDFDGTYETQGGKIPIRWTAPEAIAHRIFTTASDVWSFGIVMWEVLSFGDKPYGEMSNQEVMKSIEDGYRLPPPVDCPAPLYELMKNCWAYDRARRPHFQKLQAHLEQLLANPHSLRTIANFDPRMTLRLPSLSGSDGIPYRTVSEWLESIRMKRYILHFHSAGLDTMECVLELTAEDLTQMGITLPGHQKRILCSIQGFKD
Chain of EPHB6 (O15197 32-1021): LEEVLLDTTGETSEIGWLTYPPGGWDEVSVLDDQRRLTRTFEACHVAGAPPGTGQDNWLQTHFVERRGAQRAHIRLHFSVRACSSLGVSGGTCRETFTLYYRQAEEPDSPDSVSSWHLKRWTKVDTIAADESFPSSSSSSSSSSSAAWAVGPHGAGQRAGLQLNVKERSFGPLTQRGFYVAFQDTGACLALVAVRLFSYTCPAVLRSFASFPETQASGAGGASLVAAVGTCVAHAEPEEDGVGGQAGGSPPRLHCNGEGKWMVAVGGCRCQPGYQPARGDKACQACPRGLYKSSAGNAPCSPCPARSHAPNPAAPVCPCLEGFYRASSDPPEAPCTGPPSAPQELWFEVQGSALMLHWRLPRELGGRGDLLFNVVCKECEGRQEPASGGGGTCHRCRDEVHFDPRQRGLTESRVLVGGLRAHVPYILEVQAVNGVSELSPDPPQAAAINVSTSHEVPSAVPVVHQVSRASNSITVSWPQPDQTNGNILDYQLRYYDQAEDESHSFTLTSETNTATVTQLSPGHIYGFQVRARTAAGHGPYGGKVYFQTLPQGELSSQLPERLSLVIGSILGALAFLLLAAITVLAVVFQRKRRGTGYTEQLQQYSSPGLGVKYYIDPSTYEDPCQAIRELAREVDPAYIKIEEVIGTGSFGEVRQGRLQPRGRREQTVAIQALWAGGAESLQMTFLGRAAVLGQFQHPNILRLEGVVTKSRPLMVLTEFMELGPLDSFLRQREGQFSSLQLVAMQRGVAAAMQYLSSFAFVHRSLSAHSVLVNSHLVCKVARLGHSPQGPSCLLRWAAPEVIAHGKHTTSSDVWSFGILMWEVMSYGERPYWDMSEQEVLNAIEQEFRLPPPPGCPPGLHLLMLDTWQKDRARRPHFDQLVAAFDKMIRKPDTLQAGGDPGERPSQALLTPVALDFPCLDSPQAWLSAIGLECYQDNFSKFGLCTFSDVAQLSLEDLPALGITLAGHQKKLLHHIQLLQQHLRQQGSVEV
Chain of GSK3A (P49840 whole entry): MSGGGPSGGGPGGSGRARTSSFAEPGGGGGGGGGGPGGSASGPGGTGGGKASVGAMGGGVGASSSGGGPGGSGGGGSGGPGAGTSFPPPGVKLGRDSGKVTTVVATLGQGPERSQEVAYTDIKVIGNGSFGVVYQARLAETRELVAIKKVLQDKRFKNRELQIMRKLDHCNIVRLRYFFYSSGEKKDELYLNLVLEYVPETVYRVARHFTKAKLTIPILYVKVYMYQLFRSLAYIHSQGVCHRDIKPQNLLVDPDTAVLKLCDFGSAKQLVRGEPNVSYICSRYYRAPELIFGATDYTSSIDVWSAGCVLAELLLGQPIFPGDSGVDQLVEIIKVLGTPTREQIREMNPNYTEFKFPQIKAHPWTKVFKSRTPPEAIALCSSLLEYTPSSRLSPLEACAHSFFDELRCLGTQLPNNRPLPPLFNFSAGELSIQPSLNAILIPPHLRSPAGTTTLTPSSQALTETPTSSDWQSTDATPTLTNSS
Chain of CSNK1D (P48730 whole entry): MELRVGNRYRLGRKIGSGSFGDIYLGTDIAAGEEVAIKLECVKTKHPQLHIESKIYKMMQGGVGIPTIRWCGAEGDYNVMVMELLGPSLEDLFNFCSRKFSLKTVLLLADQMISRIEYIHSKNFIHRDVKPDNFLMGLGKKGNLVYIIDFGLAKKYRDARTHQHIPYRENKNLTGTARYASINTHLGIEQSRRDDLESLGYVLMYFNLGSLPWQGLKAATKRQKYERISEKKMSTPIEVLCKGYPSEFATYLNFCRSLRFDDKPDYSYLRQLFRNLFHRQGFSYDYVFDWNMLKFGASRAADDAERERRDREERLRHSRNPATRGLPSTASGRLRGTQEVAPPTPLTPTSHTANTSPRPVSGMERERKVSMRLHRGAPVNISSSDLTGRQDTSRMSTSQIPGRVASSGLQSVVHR
T4 sequence (P54756 25-1037): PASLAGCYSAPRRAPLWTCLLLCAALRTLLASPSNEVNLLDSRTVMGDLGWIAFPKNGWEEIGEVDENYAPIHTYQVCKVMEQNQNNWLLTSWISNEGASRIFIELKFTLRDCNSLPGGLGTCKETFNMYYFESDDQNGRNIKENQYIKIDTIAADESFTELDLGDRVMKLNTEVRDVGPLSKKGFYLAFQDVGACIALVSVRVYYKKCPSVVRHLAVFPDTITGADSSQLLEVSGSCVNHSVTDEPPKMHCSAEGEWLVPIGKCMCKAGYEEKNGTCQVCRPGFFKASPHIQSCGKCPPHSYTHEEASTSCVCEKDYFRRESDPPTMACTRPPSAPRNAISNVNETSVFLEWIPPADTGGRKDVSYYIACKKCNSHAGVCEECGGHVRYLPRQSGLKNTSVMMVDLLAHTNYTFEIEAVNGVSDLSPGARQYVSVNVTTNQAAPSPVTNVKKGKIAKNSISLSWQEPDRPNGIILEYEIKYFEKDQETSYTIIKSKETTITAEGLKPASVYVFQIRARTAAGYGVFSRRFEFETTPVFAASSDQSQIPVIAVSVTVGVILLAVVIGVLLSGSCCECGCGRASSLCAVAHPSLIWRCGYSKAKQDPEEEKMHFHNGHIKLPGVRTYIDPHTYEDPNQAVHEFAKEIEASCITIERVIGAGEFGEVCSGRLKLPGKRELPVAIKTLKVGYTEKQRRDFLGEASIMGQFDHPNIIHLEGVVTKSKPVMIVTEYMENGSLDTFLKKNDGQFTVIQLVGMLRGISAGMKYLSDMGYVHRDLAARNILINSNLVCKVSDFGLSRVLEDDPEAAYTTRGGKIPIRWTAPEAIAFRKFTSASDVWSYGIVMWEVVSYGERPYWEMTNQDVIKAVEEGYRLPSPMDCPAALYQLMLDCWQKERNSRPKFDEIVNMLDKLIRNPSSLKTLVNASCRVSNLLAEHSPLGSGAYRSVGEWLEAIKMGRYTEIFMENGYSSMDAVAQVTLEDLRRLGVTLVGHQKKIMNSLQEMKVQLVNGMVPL

remaining at 0 h, 10 µM (Plasma stability) | remaining at 10 min, 10 µM (Plasma stability) | remaining at 0.5 h, 10 µM (Plasma stability) | remaining at 1 h, 10 µM (Plasma stability) | remaining at 2 h, 10 µM (Plasma stability) | remaining at 6 h, 10 µM (Plasma stability) | 0 h - % [1] | 6 h- % [1] | 12 h- % [1] | 24 h- % [1] | 48 h- % [1] | 72 h- % [1] | remaining activity at 1 µM (FRK) | remaining activity at 1 µM (TEC) | remaining activity at 1 µM (PTK6) | plasma stability (Plasma stability) | remaining activity at 1 µM (YES1) | remaining activity at 1 µM (GSK3A) | remaining activity at 1 µM (EPHA1) | SMILES | cytotoxic effects (HEK293 cells) | other results
100% | 94.9 ± 2.5% | 96.1 ± 1.7% | 95.2 ± 2.8% | 93.2 ± 6.7% | 95.4 ± 4.3% | 100% | 101.1% | 101.4% | 103.5% | 104.2% | 104.9% |  |  |  |  |  |  |  | Cc1ncsc1-c1ccc([C@H](C)NC(=O)[C@@H]2C[C@@H](O)CN2C(=O)[C@@H](NC(=O)CCOCCOCCOCCNC(=O)c2cc(Oc3ccc(NC(=O)Nc4cc(C(C)(C)C)on4)cc3)ccn2)C(C)(C)C)cc1 [MA49, reference compound] | showed cytotoxic effects | 
100% | 92.9 ± 0.2% | 94.2 ± 1.2% | 91.9 ± 3.1% | 93.6 ± 3.2% | 88.9 ± 3.2% | 100% | 101.0% | 102.4% | 102.1% | 105.7% | 105.2% | 68.2% | 107% | 67.6% | high plasma stability | 77.1% | 95.9% | 37.2% | CNC(=O)c1cc(Oc2ccc(NC(=O)Nc3cc(C(C)(C)C)on3)cc2)ccn1 [MA68, reference compound] | showed cytotoxic effects | remaining activity at 1 µM (ABL1): 71.8%; Tracer bound (EPHA5): 41.1%; remaining activity at 1 µM (FGR): 119%; remaining activity at 1 µM (STK32B): 104%; Target Count < 50 % tracer bound (kinases with >50% tracer displacement) ([2]; of 128 kinases): 25; remaining activity at 1 µM (GSK3B): 120%; remaining activity at 1 µM (TESK1): 102%; remaining activity at 1 µM (EPHA4): 33.7%; remaining activity at 1 µM (RIPK1): 93.3%; remaining activity at 1 µM (CSNK1D): 104%; remaining activity at 1 µM (EPHB6): 99.5%; remaining activity at 1 µM (STK17B): 102%; remaining activity at 1 µM (CAMK1G): 101%
100% | 94.1 ± 4.7% | 89.5 ± 1.8% | 88.3 ± 0.2% | 86 ± 2% | 86.2 ± 2.4% | 100% | 102.6% | 103.2% | 104.4% | 105.4% | 107.4% |  |  |  | high plasma stability |  |  |  | Cc1ncsc1-c1ccc([C@H](C)NC(=O)[C@@H]2C[C@@H](O)CN2C(=O)[C@@H](NC(=O)[C@H]2CC[C@H](C(=O)N3CCC(CCNC(=O)c4cc(Oc5ccc(NC(=O)Nc6cc(C(C)(C)C)on6)cc5)ccn4)CC3)CC2)C(C)(C)C)cc1 [MA190, 4-(4-(3-(5-(tert-Butyl)isoxazol-3-yl)ureido)phenoxy)-N-(2-(1-(trans-4-(((S)-1-((2S,4R)-4-hydroxy-2-(((S)-1-(4-(4-methylthiazol-5-yl)phenyl)ethyl)carbamoyl)pyrrolidin-1-yl)-3,3-dimethyl-1-oxobutan-2-yl)carbamoyl)cyclohexanecarbonyl)piperidin-4-yl)ethyl)picolinamide] | no cytotoxic effects | 
100% | 95.9 ± 9.4% | 93.3 ± 4.2% | 92.6 ± 5.7% | 94.9 ± 1.8% | 93.3 ± 0.7% | 100% | 100.3% | 100.0% | 99.7% | 100.3% | 100.3% | 117% | 113% | 118% | high plasma stability | 120% | 118% | 120% | Cc1ncsc1-c1ccc([C@H](C)NC(=O)[C@@H]2C[C@@H](O)CN2C(=O)[C@@H](NC(=O)[C@H]2CC[C@H](C(=O)N3CCN(CCNC(=O)c4cc(Oc5ccc(NC(=O)Nc6cc(C(C)(C)C)on6)cc5)ccn4)CC3)CC2)C(C)(C)C)cc1 [MA191, 4-(4-(3-(5-(tert-Butyl)isoxazol-3-yl)ureido)phenoxy)-N-(2-(4-(trans-4-(((S)-1-((2S,4R)-4-hydroxy-2-(((S)-1-(4-(4-methylthiazol-5-yl)phenyl)ethyl)carbamoyl)pyrrolidin-1-yl)-3,3-dimethyl-1-oxobutan-2-yl)carbamoyl)cyclohexanecarbonyl)piperazin-1-yl)ethyl)picolinamide] | no cytotoxic effects | remaining activity at 1 µM (ABL1): 105%; Tracer bound (EPHA5): 120.0%; remaining activity at 1 µM (FGR): 120%; remaining activity at 1 µM (STK32B): 92.5%; kinases with no detectable binding (<10%) ([2]; share of the 128 kinases): 93.7%; remaining activity at 1 µM (GSK3B): 120%; remaining activity at 1 µM (TESK1): 116%; remaining activity at 1 µM (EPHA4): 118%; remaining activity at 1 µM (RIPK1): 104%; remaining activity at 1 µM (CSNK1D): 120%; remaining activity at 1 µM (EPHB6): 120%; remaining activity at 1 µM (STK17B): 92.4%; remaining activity at 1 µM (CAMK1G): 91.6%
